Series [1] has as its system MCF7. The series can be described thus: Antiproliferative activity against human MCF7 cells assessed as inhibition of cell proliferation incubated for 48 hrs by MTT assay. The class given is functional, cell-based. The settings on record: MCF7, 48 h.
The test system of series [2] is HeLa. The series can be described thus: Antiproliferative activity against human HeLa cells assessed as inhibition of cell proliferation incubated for 48 hrs by MTT assay. The class given is functional, cell-based. On the technique in general: Tetrazolium dyes change colour on reduction, which living cells bring about.
The test system of series [3] is SMMC-7721. The series can be described thus: Antiproliferative activity against human SMMC-7721 cells assessed as inhibition of cell proliferation incubated for 48 hrs by MTT assay. In kind it is functional, cell-based. The conditions noted are these: SMMC-7721, 48 h.
Series [4] deals with HCT-15. The experiment in a line: Cytotoxicity against human HCT-15 cells assessed as inhibition of cell growth incubated for 24 hrs by sulforhodamine B assay. The conditions noted are these: HCT-15, 24 h. The class given is functional, cell-based. (In general: Sulforhodamine B stains cellular protein and so reports cell mass.)
The test system of series [5] is Bel-7402. The series can be described thus: Cytotoxicity against human Bel-7402 cells assessed as inhibition of cell growth incubated for 48 hrs by MTT assay. The class given is functional, cell-based. The conditions noted are these: Bel-7402, 48 h.
Series [6] can be described thus: Cytotoxicity against human QSG7701 cells assessed as inhibition of cell growth incubated for 48 hrs by MTT assay. In kind it is toxicity, cell-based.
Series [7] relates to BGC-823. The experiment in a line: Antiproliferative activity against human BGC-823 cells assessed as inhibition of cell proliferation incubated for 24 hrs by MTT assay. The class given is functional, cell-based. The conditions noted are these: BGC-823, 24 h.
Series [8] has as its system MCF7. The experiment in a line: Antiproliferative activity against human MCF7 cells assessed as inhibition of cell proliferation incubated for 24 hrs by MTT assay. The conditions noted are these: MCF7, 24 h. In kind it is functional, cell-based.
Series [9] has as its system L02. The experiment in a line: Antiproliferative activity against human HL7702 cells assessed as inhibition of cell proliferation incubated for 24 hrs by MTT assay. The settings on record: L02, 24 h. In kind it is functional, cell-based.
The subject of series [10] is Candida albicans. The series can be described thus: Antifungal activity against Candida albicans MTCC 227 assessed as zone of inhibition at 100 ug/ml by well diffusion assay. The class given is functional. The conditions noted are these: read-out: IZ.
Series [11] concerns Staphylococcus aureus. The series can be described thus: Antibacterial activity against Staphylococcus aureus MTCC 96 assessed as zone of inhibition at 50 ug/ml by well diffusion assay. The class given is functional. The conditions noted are these: read-out: IZ.
In series [12] the test system is Staphylococcus epidermidis. The series can be described thus: Antibacterial activity against Staphylococcus epidermidis MTCC 435 assessed as zone of inhibition at 50 ug/ml by well diffusion assay. In kind it is functional. The conditions noted are these: read-out: IZ. (In general: Agar diffusion results depend on both activity and mobility in agar.)
The subject of series [13] is Saccharomyces cerevisiae. The series can be described thus: Antifungal activity against Saccharomyces cerevisiae MTCC 36 assessed as zone of inhibition at 100 ug/ml by well diffusion assay. The class given is functional. The conditions noted are these: read-out: IZ.
For series [14], the system named is Escherichia coli. The experiment in a line: Antibacterial activity against Escherichia coli MTCC 443 assessed as zone of inhibition at 50 ug/ml by well diffusion assay. In kind it is functional. The conditions noted are these: read-out: IZ.
The subject of series [15] is Aspergillus niger. The series can be described thus: Antifungal activity against Aspergillus niger MTCC 282 assessed as zone of inhibition at 100 ug/ml by well diffusion assay. The settings on record: read-out: IZ. The class given is functional.
Series [16] deals with Rhizopus arrhizus. The series can be described thus: Antifungal activity against Rhizopus oryzae MTCC 262 assessed as zone of inhibition at 100 ug/ml by well diffusion assay. The settings on record: read-out: IZ. The class given is functional.
The subject of series [17] is Pseudomonas aeruginosa. The series can be described thus: Antibacterial activity against Pseudomonas aeruginosa MTCC 741 assessed as zone of inhibition at 50 ug/ml by well diffusion assay. The conditions noted are these: read-out: IZ. The class given is functional.

Structures are written as SMILES.

By IC50 is commonly meant the point on the concentration scale where inhibition reaches its midpoint. For `CCCCN1C(=O)c2cccc3cc(-n4cc(-c5ccccc5)nn4)cc(c23)C1=O`, the half-maximal inhibitory concentration (IC50) in [1], in series [2] and in series [3] was 300 nM each time.
As to `O=C1c2cccc3cccc(c23)C(=O)N1CCCn1cc(-c2ccccc2)nn1`, in series [4], the IC50 was determined as 2440 nM.
`NCCCCNCCCCNCCCCN1C(=O)c2cccc3cc(N)cc(c23)C1=O`: the IC50 in series [5] is 1060 nM. Further, the half-inhibitory concentration (IC50) at 48 h in series [6] was above 50000 nM.
In the case of `NCCCN1C(=O)c2cccc3cccc(c23)C1=O` [NAPHTHALIMIDOPROPYLAMINE], in series [4], the half-inhibitory concentration (IC50) was found to be 2440 nM.
Turning to `O=C1c2cccc3cc(-n4ccnn4)cc(c23)C(=O)N1CCN1CCNCC1`, the 50% inhibitory concentration (IC50) in series [1], in [2] and in series [3] was 300 nM each time.
For the molecule `NCCCCNCCCCNCCCCN1C(=O)c2cccc3cc([N+](=O)[O-])cc(c23)C1=O`, the IC50 in series [5] came to 1060 nM. Besides, the IC50 at 48 h in series [6] was above 50000 nM.
The matching figures for `NCCCCNCCCCNCCCCN1C(=O)c2cccc3cccc(c23)C1=O`: 1060 nM and above 50000 nM.
Turning to `NCCCCNCCCCNCCCCN1C(=O)c2cccc3c(Cl)ccc(c23)C1=O`, the IC50 in series [5] was 1060 nM. Also, the half-inhibitory concentration (IC50) at 48 h in [6] is above 50000 nM.
On to `O=C1c2cccc3cc(-n4cc(-c5ccccc5)nn4)cc(c23)C(=O)N1CCN1CCNCC1`, for which the half-inhibitory concentration (IC50) in series [1], in series [2] and in series [3] was 300 nM in each case.
Take `NCCCNCCCCNCCCCN1C(=O)c2cccc3cccc(c23)C1=O`: the IC50 in [5] is 1060 nM. The 50% inhibitory concentration (IC50) at 48 h in series [6] is above 50000 nM.
Take `NCCCNCCCCNCCCN1C(=O)c2cccc3c(Cl)ccc(c23)C1=O`: the half-maximal inhibitory concentration (IC50) in series [5] turned out to be 1060 nM. Also, in series [6], the half-maximal inhibitory concentration (IC50) at 48 h was above 50000 nM.
As to `O=C1c2cccc3cccc(c23)C(=O)N1CCCNCc1cccs1`, the concentration for half-maximal inhibition (IC50) in [4] is 2440 nM.
Consider `CCN(CC)CCN1C(=O)c2cccc3c2c(cc2[nH]c(-c4c[nH]c5ccccc45)nc23)C1=O`, for which the IC50 in series [7], in series [8] and in [9] was 8200 nM in each case.
As for `O=C1c2cccc3c2c(cc2[nH]c(-c4c[nH]c5ccccc45)nc23)C(=O)N1NCc1ccccc1`, the IC50 in series [7], in series [8] and in [9] was 700 nM throughout.
Consider `CCNN1C(=O)c2cccc3c2c(cc2[nH]c(-c4c[nH]c5ccccc45)nc23)C1=O`, for which the IC50 in series [7], in series [8] and in series [9] was 700 nM throughout.
As to `NCCCNCCCNCCCN1C(=O)c2cccc3cc(N)cc(c23)C1=O`, the IC50 in series [5] was determined as 1060 nM. Moreover, the concentration for half-maximal inhibition (IC50) at 48 h in [6] was above 50000 nM.
As to `CCCCN1C(=O)c2cccc3cc(-n4ccnn4)cc(c23)C1=O`, the half-maximal inhibitory concentration (IC50) in series [1], in [2] and in [3] was 300 nM in each case.
With `O=C1c2cccc3cc(-n4cc(-c5ccccc5)nn4)cc(c23)C(=O)N1CCO`, the IC50 in series [1], in series [2] and in series [3] was 300 nM in each case.
As to `NCCCNCCCCNCCCN1C(=O)c2cccc3cc(N)cc(c23)C1=O`, the IC50 in series [5] was determined as 1060 nM. The half-maximal inhibitory concentration (IC50) at 48 h in series [6] was above 50000 nM.
In the case of `O=C1c2cccc3c2c(cc2[nH]c(-c4c[nH]c5ccccc45)nc23)C(=O)N1CCCO`, the half-inhibitory concentration (IC50) in [7], in series [8] and in series [9] was 700 nM in each case.
Take `CN(C)CCCN1C(=O)c2cccc3c2c(cc2[nH]c(-c4c[nH]c5ccccc45)nc23)C1=O`: the half-inhibitory concentration (IC50) in series [7], in [8] and in series [9] was 700 nM each time.
In the case of `NCCCNCCCCNCCCN1C(=O)c2cccc3cc([N+](=O)[O-])cc(c23)C1=O`, the 50% inhibitory concentration (IC50) in series [5] stood at 1060 nM. Further, the IC50 at 48 h in [6] is above 50000 nM.
Consider `CCCCCCCCNN1C(=O)c2cccc3c2c(cc2[nH]c(-c4c[nH]c5ccccc45)nc23)C1=O`, for which the concentration for half-maximal inhibition (IC50) in series [7], in series [8] and in series [9] was 700 nM throughout.
For the molecule `O=C1c2cccc3cccc(c23)C(=O)N1CCn1cc(-c2ccccc2)nn1`, the half-inhibitory concentration (IC50) in [4] was 2440 nM.
Regarding `COC(=O)C1=C(C)NC(=S)NC1CN1C(=O)c2cccc3cccc(c23)C1=O` (stereo not given), the zone of inhibition at 100 µg/mL in [10], in series [13], in series [15] and in [16] was 12 mm throughout. Further, the zone of inhibition at 50 µg/mL came to 15 mm in series [11], 15 mm in series [12], 12 mm in series [14] and 12 mm in series [17].
As to `NCCCNCCCCNCCCN1C(=O)c2cccc3c(Br)ccc(c23)C1=O`, in [5], the IC50 came to 1060 nM. Also, the half-maximal inhibitory concentration (IC50) at 48 h in series [6] is above 50000 nM.
Take `NCCCNCCCNCCCN1C(=O)c2cccc3c(Cl)ccc(c23)C1=O`: the IC50 in series [5] is 1060 nM. Also, in series [6], the IC50 at 48 h is above 50000 nM.
Turning to `NCCCCNCCCCNCCCN1C(=O)c2cccc3cccc(c23)C1=O`, in series [5], the concentration for half-maximal inhibition (IC50) came out at 1060 nM. In addition, the IC50 at 48 h in series [6] was above 50000 nM.
`CCCC1=C(C(=O)OC)C(CN2C(=O)c3cccc4cccc(c34)C2=O)NC(=S)N1` (stereo not given): the zone of inhibition at 100 µg/mL in series [10], in [13], in series [15] and in series [16] was 12 mm each time. In addition, the zone of inhibition at 50 µg/mL in series [11] was 15 mm; in [12], 15 mm; in [14], 12 mm; in series [17], 12 mm.
On to `NCCCCN1C(=O)c2cccc3cccc(c23)C1=O`, for which the half-maximal inhibitory concentration (IC50) in [4] turned out to be 2440 nM.
As to `NCCN1C(=O)c2cccc3cccc(c23)C1=O`, the IC50 in series [4] came to 2440 nM.
`CCC1=C(C(=O)OC(F)(F)F)C(CN2C(=O)c3cccc4cccc(c34)C2=O)NC(=O)N1` (stereo not given): the zone of inhibition at 100 µg/mL in series [10], in [13], in series [15] and in series [16] was 12 mm throughout. The zone of inhibition at 50 µg/mL in series [11] was determined as 15 mm; in series [12], 15 mm; in series [14] it was 12 mm; in [17], 12 mm.
As for `O=C1c2cccc3cccc(c23)C(=O)N1CCCNCc1ccco1`, in series [4], the IC50 is 2440 nM.
For the molecule `CCN(CC)CCN1C(=O)c2cccc3cc(-n4ccnn4)cc(c23)C1=O`, the concentration for half-maximal inhibition (IC50) in series [1], in series [2] and in series [3] was 300 nM throughout.
Consider `CN(C)CCN1C(=O)c2cccc3c2c(cc2[nH]c(-c4c[nH]c5ccccc45)nc23)C1=O`, for which the IC50 in series [7], in series [8] and in series [9] was 700 nM throughout.
In the case of `CCN(CC)CCN1C(=O)c2cccc3cc(-n4cc(-c5ccccc5)nn4)cc(c23)C1=O`, the half-inhibitory concentration (IC50) in series [1], in [2] and in series [3] was 300 nM each time.
As for `CCC1=C(C(=O)OC(F)(F)F)C(CN2C(=O)c3cccc4cccc(c34)C2=O)NC(=S)N1` (stereo not given), the zone of inhibition at 100 µg/mL in series [10], in series [13], in series [15] and in [16] was 12 mm in each case. Further, the zone of inhibition at 50 µg/mL in series [11] was found to be 15 mm; in [12], 15 mm; in [14] it was 12 mm; in series [17] it was 12 mm.
Regarding `O=C1c2cccc3cc(-n4ccnn4)cc(c23)C(=O)N1CCO`, the concentration for half-maximal inhibition (IC50) in series [1], in series [2] and in series [3] was 300 nM in each case.
Consider `O=C1c2cccc3cccc(c23)C(=O)N1CCCCn1cc(-c2ccccc2)nn1`, for which the half-maximal inhibitory concentration (IC50) in series [4] is 2440 nM.
With `CN(C)CCN1C(=O)c2cccc3cc(-n4cc(-c5ccccc5)nn4)cc(c23)C1=O`, the IC50 in [1], in series [2] and in series [3] was 300 nM in each case.
Consider `O=C1c2cccc3c2c(cc2[nH]c(-c4c[nH]c5ccccc45)nc23)C(=O)N1Nc1ccccc1`, for which the IC50 in [7], in series [8] and in series [9] was 700 nM in each case.

The record behind these values is ChEMBL document CHEMBL5244223, “l,8-Naphthalimide based DNA intercalators and anticancer agents. A systematic review from 2007 to 2017” (Eur J Med Chem, 2018).
